The values that follow come from patent US20250011300A1, “PIPERAZINYLSULFONYLARYL COMPOUNDS FOR TREATMENT OF BACTERIAL INFECTIONS” (Hoffmann-La Roche Inc., priority 2021, published 2025).

In brackets after ≈: the same amount, converted by molar mass. A value given as a limit tells only on which side of the number the result lay.

Test [1] concerns K. pneumonia (ATCC 43816). Kind of test: Minimal Inhibitory Concentration (MIC) assay, K. pneumonia. Format: cell-based. The settings on record: Klebsiella pneumoniae; K. pneumoniae ATCC43816, CAMHB, 20 hours at 35° C.; read-out: MIC K. pneumoniae ATCC43816. As to the method:
(§1) Example 122: Minimal Inhibitory Concentration Protocol (MIC) Assay
(§2) The in vitro potency of compounds to inhibit E. coli (ATCC 25922) and K. pneumonia (ATCC 43816) growth was assessed by MIC (Minimal Inhibitory Concentration) assay. Samples were prepared from 10 mM DMSO stock solutions. After serial 2-fold dilution in DMSO in a master plate (Greiner, Cat No: 651201), 180 μL sterile distilled water was added to 20 μL each aliquot of the samples. Then 10 μL diluted compounds were transferred into a new assay plate (Costar, 3599).
(§3) The growth medium Cation-Adjusted Mueller Hinton Broth (CAMHB) was prepared by adding the 20 mg per liter CaCl2) and 20 mg per liter MgCl2 into the MHB medium (Jianglai Company, sterilized).
(§4) Vials of each of the test microorganisms were maintained frozen in the vapor phase of a liquid nitrogen freezer. The bacteria E. coli ATCC 25922 (KWIKSTIK, 0335K) and K. pneumonia ATCC 43816 were taken out from liquid nitrogen freezer, then thawed in room temperature, and diluted in the CAMHB medium to achieve a final inoculum of 5×10^5 CFU/mL. 90 μL CAMHB with bacteria was dispensed to the assay plate and pipetted 5 times.
(§5) Then the assay plates were incubated for 20 hours at 35° C. in ambient air. Following incubation, the MIC (μg/mL), the lowest concentration of drug that inhibits visible growth of the microorganism was read and recorded throw the microscope.

Test [2] addresses Escherichia coli LpxH (UDP-2,3-diacylglucosamine hydrolase) (Escherichia coli (strain K12), UniProt P43341). Kind of test: 50% Inhibitory Concentration (IC50) to LpxH, UMP/CMP-Glo Glycosyltransferase Assay kit. In kind it is biochemical. As to the method:
Example 121: 50% Inhibitory Concentration (IC50) to UDP-2,3-diacylglucosamine hydrolase (LpxH)
The inhibitory potency of molecules to UDP-2,3-diacylglucosamine hydrolase (LpxH) was determined using the UMP/CMP-Glo™ Glycosyltransferase Assay kit. LpxH hydrolyzes the pyrophosphate bond of UDP-2,3-diacylglucosamine (UDP-DAG) to yield 2,3-diacylglucosamine 1-phosphate (lipid X) and UMP. The assay kit could quantify the UMP production by convert the UMP to ATP and generate light in a luciferase reaction. The compound's effect on the LpxH activity is detected by measuring the light using a luminometer (Envision).

For another test, the system named is E. coli (ATCC 25922). Kind of test: Minimal Inhibitory Concentration (MIC) assay, E. coli. Particulars: Escherichia coli, ATCC25922; E. coli ATCC 25922, CAMHB, 20 hours at 35° C.; read-out: MIC E. coli ATCC 25922. Format: cell-based. As to the method:
as §1, §2, §3, §4, §5

Sequence of Escherichia coli LpxH (UDP-2,3-diacylglucosamine hydrolase) (P43341 whole entry): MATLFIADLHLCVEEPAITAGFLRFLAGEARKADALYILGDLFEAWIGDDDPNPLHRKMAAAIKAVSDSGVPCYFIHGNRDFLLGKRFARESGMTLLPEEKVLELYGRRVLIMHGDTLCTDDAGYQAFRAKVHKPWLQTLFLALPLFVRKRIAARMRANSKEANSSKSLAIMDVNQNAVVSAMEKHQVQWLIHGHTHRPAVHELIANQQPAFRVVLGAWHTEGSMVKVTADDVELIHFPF

Broadly, the MIC is the lowest concentration found to suppress growth. In general, IC50 refers to the point on the concentration scale where inhibition reaches its midpoint. Low readings indicate greater potency, high ones weaker potency. Take `NC1CC(=O)N(c2ccc(S(=O)(=O)N3CCN(c4cc(S(=O)(=O)C5CC5)cc(Cl)n4)CC3)cc2)C1` (stereo not drawn) [Example 69, 4-Amino-1-[4-[4-(6-chloro-4-cyclopropylsulfonyl-2-pyridyl)piperazin-1-yl]sulfonylphenyl]pyrrolidin-2-one]: the results for the MIC (in test [1]; in the test on E. coli (ATCC 25922)) were 6.75 µg/mL (≈ 12.5 µM) and 13.5 µg/mL (≈ 25 µM), respectively. This compound also had an IC50 in test [2] of 746 nM.

As to `C=Cc1nc(N2CCN(S(=O)(=O)c3ccc(N4CC(N)CC4=O)cc3)CC2)cc(C(F)(F)c2ccccc2)n1` (stereo not drawn) [Example 84, 4-Amino-1-[4-[4-[6-[difluoro(phenyl)methyl]-2-vinyl-pyrimidin-4-yl]piperazin-1-yl]sulfonylphenyl]pyrrolidin-2-one], the MIC came out at 16.7 µg/mL (≈ 30.1 µM) in test [1] and 4.18 µg/mL (≈ 7.54 µM) in the test with E. coli (ATCC 25922). In test [2], this compound showed an IC50 of 14.4 nM.

`NCCN1CCC2(CC1)CN(c1ccc(S(=O)(=O)N3CCN(c4cc(C(F)(F)F)cc(Cl)n4)CC3)cc1)C(=O)O2` [Example 24, 8-(2-Aminoethyl)-3-[4-[4-[6-chloro-4-(trifluoromethyl)-2-pyridyl]piperazin-1-yl]sulfonylphenyl]-1-oxa-3,8-diazaspiro[4.5]decan-2-one]: the MIC (in test [1]; in the test on E. coli (ATCC 25922)) was 2.24 µg/mL (≈ 3.71 µM) each time. In test [2], this compound showed an IC50 of 14.9 nM.

Take `NC1CN(CC2CN(c3ccc(S(=O)(=O)N4CCN(c5cc(C(F)(F)F)cc(Cl)n5)CC4)cc3)C(=O)O2)C1` (stereo not drawn) [Example 31, 5-[(3-Aminoazetidin-1-yl)methyl]-3-[4-[4-[6-chloro-4-(trifluoromethyl)-2-pyridyl]piperazin-1-yl]sulfonylphenyl]oxazolidin-2-one]: the MIC came out at 4.31 µg/mL (≈ 7.5 µM) in test [1] and 2.15 µg/mL (≈ 3.74 µM) in the test on E. coli (ATCC 25922). The compound also had an IC50 in test [2] of 6.96 nM.

Take `O=C1CC(N2CCN[C@H](CO)C2)CN1c1ccc(S(=O)(=O)N2CCN(c3cc(C(F)(F)F)cc(Cl)n3)CC2)cc1` (stereo partly drawn) [Example 53, 1-[4-[4-[6-Chloro-4-(trifluoromethyl)-2-pyridyl]piperazin-1-yl]sulfonylphenyl]-4-[(3S)-3-(hydroxymethyl)piperazin-1-yl]pyrrolidin-2-one]: the MIC was determined as 3 µg/mL (≈ 4.97 µM) in test [1] and 2 µg/mL (≈ 3.32 µM) in the test with E. coli (ATCC 25922). Further, the IC50 in test [2] is 6.63 nM.

`CC1(C)C(=O)N(c2ccc(S(=O)(=O)N3CCN(c4cc(C(F)(F)F)cc(Cl)n4)CC3)cc2)CC1N` (stereo not drawn) [Example 5, 4-Amino-1-[4-[4-[6-chloro-4-(trifluoromethyl)-2-pyridyl]piperazin-1-yl]sulfonylphenyl]-3,3-dimethyl-pyrrolidin-2-one]: the figures for the MIC (in test [1]; in the test on E. coli (ATCC 25922)) were 16.1 µg/mL (≈ 30.4 µM) and 8.08 µg/mL (≈ 15.2 µM), respectively. This compound also gave a 50% inhibitory concentration (IC50) in test [2] of 154 nM.

For `O=C1CC(NC2CNC2)CN1c1ccc(S(=O)(=O)N2CCN(c3cc(C(F)(F)F)cc(Cl)n3)CC2)cc1` (stereo not drawn) [Example 58, 4-(Azetidin-3-ylamino)-1-[4-[4-[6-chloro-4-(trifluoromethyl)-2-pyridyl]piperazin-1-yl]sulfonylphenyl]pyrrolidin-2-one], the values for the MIC (in test [1]; in the test with E. coli (ATCC 25922)) were 14.9 µg/mL (≈ 26.6 µM) and 7.44 µg/mL (≈ 13.3 µM), respectively. The compound also showed an IC50 in test [2] of 28.6 nM.

Regarding `NC1CC(=O)N(c2ccc(S(=O)(=O)N3CCN(c4cc(C(F)(F)c5ccccc5)nc(C5CC5)n4)CC3)cc2)C1` (stereo not drawn) [Example 79, 4-Amino-1-[4-[4-[2-cyclopropyl-6-[difluoro(phenyl)methyl]pyrimidin-4-yl]piperazin-1-yl]sulfonylphenyl]pyrrolidin-2-one], the values for the MIC (in test [1]; with E. coli (ATCC 25922)) were over 28.4 µg/mL and 14.2 µg/mL (≈ 25 µM), respectively. Moreover, the IC50 in test [2] is 179 nM.

Regarding `N[C@@H]1CN(C2CC(=O)N(c3ccc(S(=O)(=O)N4CCN(c5cc(C(F)(F)F)cc(Cl)n5)CC4)cc3)C2)CC[C@H]1O` (stereo partly drawn) [Example 57, 4-((3R,4R)-3-amino-4-hydroxypiperidin-1-yl)-1-(4-((4-(6-chloro-4-(trifluoromethyl)pyridin-2-yl)piperazin-1-yl)sulfonyl)phenyl)pyrrolidin-2-one], the MIC (in test [1]; in the test with E. coli (ATCC 25922)) was 2 µg/mL (≈ 3.32 µM) in each case. This compound showed an IC50 in test [2] of 34.8 nM.

For the compound `COc1cc(C(F)(F)c2ccccc2)nc(N2CCN(S(=O)(=O)c3ccc(N4CC(N)CC4=O)cc3)CC2)n1` (stereo not drawn) [Example 82, 4-Amino-1-[4-[4-[4-[difluoro(phenyl)methyl]-6-methoxy-pyrimidin-2-yl]piperazin-1-yl]sulfonylphenyl]pyrrolidin-2-one], the MIC (in test [1]; in the test with E. coli (ATCC 25922)) was 6.98 µg/mL (≈ 12.5 µM) throughout. Further, the IC50 in test [2] is 247 nM.

With `NC1CC(=O)N(c2ccc(S(=O)(=O)N3CCN(c4cc(C(F)(F)C5CCOCC5)cc(Cl)n4)CC3)cc2)C1` (stereo not drawn) [Example 95, 4-Amino-1-[4-[4-[6-chloro-4-[difluoro(tetrahydropyran-4-yl)methyl]-2-pyridyl]piperazin-1-yl]sulfonylphenyl]pyrrolidin-2-one], the MIC (in test [1]; in the test with E. coli (ATCC 25922)) was 0.89 µg/mL (≈ 1.56 µM) throughout. Half-maximal inhibition in test [2] (IC50) was put at 57.9 nM.

On to `NCC1CN(c2ccc(S(=O)(=O)N3CCN(c4cc(C(F)(F)F)cc(Cl)n4)CC3)cc2F)C(=O)O1` (stereo not drawn) [Example 63, 5-(Aminomethyl)-3-[4-[4-[6-chloro-4-(trifluoromethyl)-2-pyridyl]piperazin-1-yl]sulfonyl-2-fluoro-phenyl]oxazolidin-2-one], for which the MIC in test [1] came out at 7.3 µg/mL (≈ 13.6 µM); in the test on E. coli (ATCC 25922), 1.83 µg/mL (≈ 3.4 µM). This compound had an IC50 in test [2] of 204 nM.

For the compound `NC1CCN(c2ccc(S(=O)(=O)N3CCN(c4cc(C(F)(F)F)cc(Cl)n4)CC3)cc2)C1=O` (stereo not drawn) [Example 8, 3-Amino-1-[4-[4-[6-chloro-4-(trifluoromethyl)-2-pyridyl]piperazin-1-yl]sulfonylphenyl]pyrrolidin-2-one], the MIC in test [1] came out at 7.72 µg/mL (≈ 15.3 µM); in the test with E. coli (ATCC 25922), 3.86 µg/mL (≈ 7.66 µM). In test [2], this compound showed an IC50 of 117 nM.

As to `O=C1O[C@H]2CCNC[C@H]2N1c1ccc(S(=O)(=O)N2CCN(c3cc(C(F)(F)F)cc(Cl)n3)CC2)cc1` [Example 16, (3aR,7aS)-3-[4-[4-[6-chloro-4-(trifluoromethyl)-2-pyridyl]piperazin-1-yl]sulfonylphenyl]-3a,4,5,6,7,7a-hexahydrooxazolo[4,5-c]pyridin-2-one], the MIC (in test [1]; with E. coli (ATCC 25922)) was 1.03 µg/mL (≈ 1.89 µM) in each case. Moreover, inhibition in test [2] was half-maximal at 38.5 nM (IC50).

On to `NC1CC(=O)N(c2ccc(S(=O)(=O)N3CCN(c4cc(C(F)(F)c5ccccn5)cc(Cl)n4)CC3)cc2)C1` (stereo not drawn) [Example 89, 4-Amino-1-[4-[4-[6-chloro-4-[difluoro(2-pyridyl)methyl]-2-pyridyl]piperazin-1-yl]sulfonylphenyl] pyrrolidin-2-one], for which the MIC (in test [1]; in the test with E. coli (ATCC 25922)) was 0.88 µg/mL (≈ 1.56 µM) throughout. In test [2], this compound had an IC50 of 60.4 nM.

On to `O=C1O[C@H]2CCNC[C@H]2N1c1ccc(S(=O)(=O)N2CCN(c3cc(C(F)(F)c4ccccc4)cc(Cl)n3)CC2)cc1` [Example 87, (3aR,7aS)-3-[4-[4-[6-chloro-4-[difluoro(phenyl)methyl]-2-pyridyl]piperazin-1-yl]sulfonylphenyl]-3a,4,5,6,7,7a-hexahydrooxazolo[4,5-c]pyridin-2-one], for which the MIC worked out at 1.09 µg/mL (≈ 1.8 µM) in test [1] and 0.55 µg/mL (≈ 0.91 µM) in the test on E. coli (ATCC 25922). Further, the IC50 in test [2] was 11.6 nM.

Turning to `O=C1CC(N2C[C@@H](O)[C@@H](O)C2)CN1c1ccc(S(=O)(=O)N2CCN(c3cc(C(F)(F)F)cc(Cl)n3)CC2)cc1` (stereo partly drawn) [Example 48, 1-[4-[4-[6-Chloro-4-(trifluoromethyl)-2-pyridyl]piperazin-1-yl]sulfonylphenyl]-4-[(3S,4R)-3,4-dihydroxypyrrolidin-1-yl]pyrrolidin-2-one], the MIC in test [1] came out at 3.69 µg/mL (≈ 6.25 µM); in the test on E. coli (ATCC 25922) it was 1.84 µg/mL (≈ 3.12 µM). In test [2], this compound gave an IC50 of 6.78 nM.

For the compound `NC1CC(=O)N(c2ccc(S(=O)(=O)N3CCN(c4cc(C(F)(F)F)cc(Cl)n4)CC3)cc2)C1` (stereo not drawn) [Example 1, 4-Amino-1-[4-[4-[6-chloro-4-(trifluoromethyl)-2-pyridyl]piperazin-1-yl]sulfonylphenyl]pyrrolidin-2-one], the MIC in test [1] came out at 1.93 µg/mL (≈ 3.83 µM); in the test with E. coli (ATCC 25922) it was 1.45 µg/mL (≈ 2.88 µM). Also, the IC50 in test [2] was 260 nM.

For `NCC1COC(=O)N1c1ccc(S(=O)(=O)N2CCN(c3cc(C(F)(F)F)cc(Cl)n3)CC2)cc1` (stereo not drawn) [Example 6, 4-(Aminomethyl)-3-[4-[4-[6-chloro-4-(trifluoromethyl)-2-pyridyl]piperazin-1-yl]sulfonylphenyl]oxazolidin-2-one], the MIC (in test [1]; in the test on E. coli (ATCC 25922)) was 1.98 µg/mL (≈ 3.81 µM) throughout. In test [2], this compound had a concentration for half-maximal inhibition (IC50) of 44.2 nM.
